Measurements as given in the supplement of paper PMC10307832.

Tests used:
Assay in all cases: relative viability (nuclei count vs DMSO), 5 days (fraction); higher = more cells survive
[1] = compound: CN1CCN(c2ccc3nc(-c4c(N)c5c(F)cccc5[nH]c4=O)[nH]c3c2)CC1 [Dovitinib] + O=C(c1cc(Cc2n[nH]c(=O)c3ccccc23)ccc1F)N1CCN(C(=O)C2CC2)CC1 [Olaparib] (partner 8 µM)
Outline: (§1)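 A single step with final 0.05% Triton X-100, 1% formaldehyde and 1 ug/ml Hoechst fixed the cells and stained nuclei 5 days after treatment. Lung cancer cell lines in 1536-well plates had been treated by pin tool the day after seeding with one drug alone or a fixed anchor-drug dose plus five library-drug doses (not always all listed) in √10 steps, and nuclei were counted on 4× images. Relative viability is the ratio of nuclei in treated wells to nuclei in vehicle wells, taken as the median of duplicate plates.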

[2] = compound: CN1CCN(c2ccc3nc(-c4c(N)c5c(F)cccc5[nH]c4=O)[nH]c3c2)CC1 [Dovitinib] + COc1cc2c(Oc3ccc(NC(=O)C4(C(=O)Nc5ccc(F)cc5)CC4)cc3F)ccnc2cc1OCCCN1CCOCC1 [Foretinib] (partner 0.25 µM)
Outline: as §1

[3] = compound: CN1CCN(c2ccc3nc(-c4c(N)c5c(F)cccc5[nH]c4=O)[nH]c3c2)CC1 [Dovitinib] + Cc1nc(NC(=O)N2CCC[C@H]2C(N)=O)sc1-c1ccnc(C(C)(C)C(F)(F)F)c1 [Alpelisib] (partner 2 µM)
Outline: as §1

[4] = compound: CN1CCN(c2ccc3nc(-c4c(N)c5c(F)cccc5[nH]c4=O)[nH]c3c2)CC1 [Dovitinib] + Nc1nc2[nH]cc(CCc3ccc(C(=O)N[C@@H](CCC(=O)O)C(=O)O)cc3)c2c(=O)[nH]1 [Pemetrexed] (partner 0.2 µM)
Outline: as §1

Cell Line	relative viability ([1]; first compound 0.02 µM)	relative viability ([1]; first compound 0.06325 µM)	relative viability ([1]; first compound 0.2 µM)	relative viability ([1]; first compound 0.6325 µM)	relative viability ([1]; first compound 2 µM)	relative viability ([2]; first compound 0.02 µM)	relative viability ([2]; first compound 0.06325 µM)	relative viability ([2]; first compound 0.2 µM)	relative viability ([2]; first compound 0.6325 µM)	relative viability ([2]; first compound 2 µM)	relative viability ([3]; first compound 0.02 µM)	relative viability ([3]; first compound 0.06325 µM)	relative viability ([3]; first compound 0.2 µM)	relative viability ([3]; first compound 0.6325 µM)	relative viability ([3]; first compound 2 µM)	relative viability ([4]; first compound 0.02 µM)	relative viability ([4]; first compound 0.06325 µM)	relative viability ([4]; first compound 0.2 µM)	relative viability ([4]; first compound 0.6325 µM)	relative viability ([4]; first compound 2 µM)
NCI-H2087	0.631	0.519	0.604	0.571	0.689	1.19	1.15	1.14	1.05	1.16	1.35	1.31	1.02	0.989	1.01	0.755	0.668	0.661	0.716	0.616
NCI-H2228	0.689	0.592	0.866	0.768	0.573	0.9	0.832	0.928	1.08	0.915	0.997	0.674	0.61	0.837	0.565	0.258	0.344	0.324	0.33	0.321
NCI-H727	0.584	0.72	0.719	0.679	0.674	0.815	0.689	0.747	0.799	0.706	0.673	0.642	0.476	0.48	0.47	–	–	–	–	–
NCI-H650	0.348	0.388	0.391	0.414	0.429	0.955	1.02	1.1	1	1.15	1.13	0.972	1.07	0.997	1.2	0.908	0.856	0.898	0.983	0.956
NCI-H520	0.358	0.315	0.332	0.33	0.389	0.698	0.894	0.818	0.733	0.698	0.794	0.988	0.935	0.86	0.769	0.687	0.683	0.615	0.596	0.635
EBC-1	0.723	0.69	0.664	0.712	0.677	0.105	0.0996	0.103	0.0933	0.115	0.951	0.781	0.925	0.73	0.708	–	–	–	–	–
NCI-H661	0.68	0.749	0.738	0.774	0.752	1.05	1	1.08	1.07	1.12	0.706	0.661	0.885	0.898	0.573	0.888	0.927	0.935	0.878	0.949
NCI-H1299	0.927	1.01	0.982	0.946	1.02	1.11	1.1	1.11	1.11	1.06	0.984	1.02	1.02	1.04	1.09	–	–	–	–	–
LK-2	0.738	0.818	0.676	0.935	0.739	1.39	1.21	1.4	0.946	1.04	1.22	1.06	0.974	0.959	0.628	0.309	0.274	0.287	0.342	0.265
NCI-H1993	1.07	0.961	1.08	0.912	0.982	0.759	0.714	0.742	0.771	0.771	0.599	0.683	0.642	0.71	0.734	0.665	0.521	0.633	0.594	0.486
NCI-H1648	0.506	0.815	0.932	0.667	0.77	–	–	–	–	–	–	–	–	–	–	0.521	0.729	0.628	0.804	0.631
NCI-H1650	0.595	0.703	0.823	0.804	0.733	1.44	1.21	0.998	0.819	0.972	–	–	–	–	–	0.404	0.347	0.395	0.339	0.354
SW 900	0.796	0.809	0.847	0.808	0.851	0.85	0.841	0.919	1	0.792	–	–	–	–	–	0.473	0.477	0.476	0.534	0.491
IA-LM	0.723	0.812	0.916	0.795	0.845	1.2	1.19	1.05	1.24	1.12	0.732	0.78	0.854	0.911	0.765	–	–	–	–	–
NCI-H1563	–	–	–	–	–	0.983	0.977	0.975	0.898	0.953	0.943	0.893	1.06	0.908	0.902	0.692	0.922	0.933	0.913	0.829
HCC-44	0.976	0.977	0.949	0.996	0.92	–	–	–	–	–	0.721	0.783	0.835	0.856	0.747	0.617	0.659	0.685	0.687	0.586
ABC-1	0.628	0.664	0.871	1.09	0.944	0.899	1.05	1.2	1.11	1.42	0.994	0.947	0.967	0.564	0.823	–	–	–	–	–
NCI-H522	0.729	0.695	0.728	0.634	0.66	–	–	–	–	–	–	–	–	–	–	1.05	1.03	1.22	0.949	1.02
NCI-H1792	0.582	0.41	0.404	0.614	0.548	–	–	–	–	–	0.674	0.617	0.745	0.725	0.676	0.909	0.631	0.672	0.972	0.827
